Measurements reported in patent US11213577B2, “Treatment of cancer using recall antigens delivered by attenuated bacteria” (ALBERT EINSTEIN COLLEGE OF MEDICINE, INC., priority 2015, dated 2022).

Columns and labels:
TAM (CD11b+F4/80+) = test: Analysis of TAM (CD11b+F4/80+) in metastases of Panc-02 mice by flow cytometry; format: in vivo
Method: (§1) FIG. 7A-7B. […] C57B16 mice were challenged with Panc-02 tumor cells and treated with Listeria-TT+GEM as described in FIG. 7A. Two days after the last treatment the percentage of MDSC (CD11b+Gr1+) was determined in blood by flow cytometry. N=5 mice per group. Representative of two experiments. […] C57B16 mice were challenged with Panc-02 tumor cells and treated with Listeria-TT+GEM as described in FIG. 7A. Two days after the last treatment the percentage of TAM (CD11b+F4/80+) was determined in the primary tumors by flow cytometry. N=5 mice per group. Representative of two experiments. The error bars represent SEM.
(§2) Panc-02 mice with advanced pancreatic cancer were treated with one high and multiple low doses of Listeria-TT (LM-TT) and GEM as described in FIG. 7A. MDSC and TAM were analyzed in the metastases by flow cytometry. Metastases of 3 mice were pooled. This experiment was performed once.

CD4 and CD8 T cells [1] = test: CD4 and CD8 T cell responses in spleen of KPC mice by flow cytometry; format: in vivo
MDSC (CD11b+Gr1+) = test: Analysis of MDSC (CD11b+Gr1+) in blood of Panc-02 mice by flow cytometry; format: in vivo
Method: as §1, §2

CD4 and CD8 T cells [2] = test: CD4 and CD8 T cell responses in spleens of Panc-02 mice by flow cytometry; format: in vivo; conditions: spleens of 3 mice pooled
CD8 T cells = test: CD8 T cell responses to immunodominant TT epitope after immunization; format: in vivo, BALB/cByJ mice; conditions: three immunizations with TT856-1313 protein and CpG, blood, restimulated with […]
[3] = TAM in metastases, 3 mice pooled

Nc1ccn([C@@H]2O[C@H](CO)[C@@H](O)C2(F)F)c(=O)n1 [GEM, gemcitabine]
CD80, Percentage of TAM (CD11b+F4/80+) in Metastases (TAM (CD11b+F4/80+); [3]): 4.28 Percentage
IL-6, Percentage of TAM (CD11b+F4/80+) in Metastases (TAM (CD11b+F4/80+); [3]): 1.25 Percentage
IL-10, Percentage of TAM (CD11b+F4/80+) in Metastases (TAM (CD11b+F4/80+); [3]): 1.47 Percentage
MARCO, Percentage of TAM (CD11b+F4/80+) in Metastases (TAM (CD11b+F4/80+); [3]): 1.94 Percentage
TNFα, Percentage of TAM (CD11b+F4/80+) in Metastases (TAM (CD11b+F4/80+); [3]): 8.85 Percentage
TAM population in metastases (TAM (CD11b+F4/80+); two days after last treatment): reduces the TAM population
CD3CD4CD69 (CD4 and CD8 T cells [1]): 10.01 Percentage
CD3CD4Granzyme B (CD4 and CD8 T cells [1]): 3.5 Percentage
CD3CD4IFNγ (CD4 and CD8 T cells [1]): 0.0 Percentage
CD3CD4Perforin (CD4 and CD8 T cells [1]): 7.90 Percentage
CD3CD8CD69 (CD4 and CD8 T cells [1]): 17.5 Percentage
CD3CD8Granzyme B (CD4 and CD8 T cells [1]): 9.71 Percentage
CD3CD8IFNγ (CD4 and CD8 T cells [1]): 1.7 Percentage
CD3CD8Perforin (CD4 and CD8 T cells [1]): 15.60 Percentage
CD80, Percentage of MDSC (CD11b+Gr1+) in Blood (MDSC (CD11b+Gr1+); MDSC in blood): 1.78 Percentage
IL-6, Percentage of MDSC (CD11b+Gr1+) in Blood (MDSC (CD11b+Gr1+); MDSC in blood): 3.59 Percentage
IL-10, Percentage of MDSC (CD11b+Gr1+) in Blood (MDSC (CD11b+Gr1+); MDSC in blood): 2.76 Percentage
MARCO, Percentage of MDSC (CD11b+Gr1+) in Blood (MDSC (CD11b+Gr1+); MDSC in blood): 3.84 Percentage
TNFα, Percentage of MDSC (CD11b+Gr1+) in Blood (MDSC (CD11b+Gr1+); MDSC in blood): 8.49 Percentage
MDSC population in blood (MDSC (CD11b+Gr1+); two days after last treatment): reduces the MDSC population
CD3CD4CD69 (CD4 and CD8 T cells [2]): 14.2 Percentage
CD3CD4Granzyme B (CD4 and CD8 T cells [2]): 4.8 Percentage
CD3CD4IFNγ (CD4 and CD8 T cells [2]): 2.7 Percentage
CD3CD4Perforin (CD4 and CD8 T cells [2]): 14.9 Percentage
CD3CD8CD69 (CD4 and CD8 T cells [2]): 15.5 Percentage
CD3CD8Granzyme B (CD4 and CD8 T cells [2]): 1.1 Percentage
CD3CD8IFNγ (CD4 and CD8 T cells [2]): 0.4 Percentage
CD3CD8Perforin (CD4 and CD8 T cells [2]): 4.8 Percentage

B1: TT856-1313 protein: purified non-toxic C-terminal fragment of tetanus toxoid, amino acid positions 856-1313 (protein, UniProt P04958 856-1313, looked up, fragment)
chain: STPIPFSYSKNLDCWVDNEEDIDVILKKSTILNLDINNDIISDISGFNSSVITYPDAQLVPGINGKAIHLVNNESSEVIVHKAMDIEYNDMFNNFTVSFWLRVPKVSASHLEQYGTNEYSIISSMKKHSLSIGSGWSVSLKGNNLIWTLKDSAGEVRQITFRDLPDKFNAYLANKWVFITITNDRLSSANLYINGVLMGSAEITGLGAIREDNNITLKLDRCNNNNQYVSIDKFRIFCKALNPKEIEKLYTSYLSITFLRDFWGNPLRYDTEYYLIPVASSSKDVQLKNITDYMYLTNAPSYTNGKLNIYYRRLYNGLKFIIKRYTPNNEIDSFVKSGDFIKLYVSYNNNEHIVGYPKDGNAFNNLDRILRVGYNAPGIPLYKKMEAVKLRDLKTYSVQLKLYDDKNASLGLVGTHNGQIGNDPNRDILIASNWYFNHLKDKILGCDWYFVPTDEGWT
CD8 T cell responses to immunodominant epitope (CD8 T cells): CD8 T cells were activated
